#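 96-well plates; 48 h exposure; 5 concentrations. Endpoints by linear interpolation between flanking doses. Not reached: highest tested concentration assigned. Here, GI50 denotes the concentration required for 50% inhibition of growth.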 The source made the active and inactive calls. No stated cut-off is given here; in the data, active = GI50 up to about 1.1 µM and inactive = higher.
# Tests used:
# Experiment in all cases: growth of human tumour cells (NCI), 48 h
# U-251 = tested on: U-251
# Malme-3M = tested on: Malme-3M
# TK-10 = tested on: TK-10
# HT-29 = tested on: HT-29
# DMS-114 = tested on: DMS-114
# OVCAR-3 = tested on: OVCAR-3
# SK-MEL-2 = tested on: SK-MEL-2
# RXF 393 = tested on: RXF 393
# XF498 = tested on: XF498
# UO-31 = tested on: UO-31
# HCT-116 = tested on: HCT-116
# SF-268 = tested on: SF-268
# CAKI-1 = tested on: CAKI-1
# UACC-257 = tested on: UACC-257
# COLO 205 = tested on: COLO 205
# MOLT-4 = tested on: MOLT-4
# LXFL 529 = tested on: LXFL 529
# A498 = tested on: A498
# KM-20L2 = tested on: KM-20L2
# NCI-H460 = tested on: NCI-H460
# UACC-62 = tested on: UACC-62
# ACHN = tested on: ACHN
# NCI-H522 = tested on: NCI-H522
# OVCAR-4 = tested on: OVCAR-4
# SNB-75 = tested on: SNB-75
# SK-MEL-28 = tested on: SK-MEL-28
# EKVX = tested on: EKVX
# RXF 631 = tested on: RXF 631
# HCC 2998 = tested on: HCC 2998
# M14 = tested on: M14
# HOP-18 = tested on: HOP-18
# SR = tested on: SR
# K562 = tested on: K562
# CCRF-CEM = tested on: CCRF-CEM
# 786-0 = tested on: 786-0
# HL-60 = tested on: HL-60
# RPMI-8226 = tested on: RPMI-8226
# SF-539 = tested on: SF-539
# SK-MEL-5 = tested on: SK-MEL-5
# KM12 = tested on: KM12
# OVCAR-5 = tested on: OVCAR-5
# OVCAR-8 = tested on: OVCAR-8
# DLD-1 = tested on: DLD-1
# IGROV-1 = tested on: IGROV-1
# LOX IMVI = tested on: LOX IMVI
# SK-OV-3 = tested on: SK-OV-3
# NCI-H23 = tested on: NCI-H23
# M19-MEL = tested on: M19-MEL
# HOP-62 = tested on: HOP-62
# SN12C = tested on: SN12C
# HCT-15 = tested on: HCT-15
# SW-620 = tested on: SW-620
# SNB-19 = tested on: SNB-19
# A549 = tested on: A549
# DMS-273 = tested on: DMS-273
# SNB-78 = tested on: SNB-78
# NCI-H226 = tested on: NCI-H226
# SF-295 = tested on: SF-295
smiles,measurement,setting,value
COC(=O)C(C(=O)C(=O)Nc1cccc(C)c1)C1=NC(N)SS1 (stereo not drawn),GI50,U-251,> 100 µM (inactive)
same,GI50,Malme-3M,> 100 µM (inactive)
same,GI50,TK-10,> 100 µM (inactive)
same,GI50,HT-29,> 100 µM (inactive)
same,GI50,DMS-114,> 100 µM (inactive)
same,GI50,OVCAR-3,> 100 µM (inactive)
same,GI50,SK-MEL-2,> 100 µM (inactive)
same,GI50,RXF 393,> 100 µM (inactive)
same,GI50,XF498,> 100 µM (inactive)
same,GI50,UO-31,> 100 µM (inactive)
same,GI50,HCT-116,> 100 µM (inactive)
same,GI50,SF-268,> 100 µM (inactive)
same,GI50,CAKI-1,> 100 µM (inactive)
same,GI50,UACC-257,> 100 µM (inactive)
same,GI50,COLO 205,> 100 µM (inactive)
same,GI50,MOLT-4,> 100 µM (inactive)
same,GI50,LXFL 529,> 100 µM (inactive)
same,GI50,A498,> 100 µM (inactive)
same,GI50,KM-20L2,> 100 µM (inactive)
same,GI50,NCI-H460,> 100 µM (inactive)
same,GI50,UACC-62,> 100 µM (inactive)
same,GI50,ACHN,> 100 µM (inactive)
same,GI50,NCI-H522,> 100 µM (inactive)
same,GI50,OVCAR-4,> 100 µM (inactive)
same,GI50,SNB-75,> 100 µM (inactive)
same,GI50,SK-MEL-28,> 100 µM (inactive)
same,GI50,EKVX,> 100 µM (inactive)
same,GI50,RXF 631,> 100 µM (inactive)
same,GI50,HCC 2998,> 100 µM (inactive)
same,GI50,M14,> 100 µM (inactive)
same,GI50,HOP-18,> 100 µM (inactive)
same,GI50,SR,> 100 µM (inactive)
same,GI50,K562,> 100 µM (inactive)
same,GI50,CCRF-CEM,> 100 µM (inactive)
same,GI50,786-0,> 100 µM (inactive)
same,GI50,HL-60,> 100 µM (inactive)
same,GI50,RPMI-8226,> 100 µM (inactive)
same,GI50,SF-539,> 100 µM (inactive)
same,GI50,SK-MEL-5,> 100 µM (inactive)
same,GI50,KM12,> 100 µM (inactive)
same,GI50,OVCAR-5,> 100 µM (inactive)
same,GI50,OVCAR-8,> 100 µM (inactive)
same,GI50,DLD-1,> 100 µM (inactive)
same,GI50,IGROV-1,> 100 µM (inactive)
same,GI50,LOX IMVI,> 100 µM (inactive)
same,GI50,SK-OV-3,> 100 µM (inactive)
same,GI50,NCI-H23,> 100 µM (inactive)
same,GI50,M19-MEL,> 100 µM (inactive)
same,GI50,HOP-62,> 100 µM (inactive)
same,GI50,SN12C,> 100 µM (inactive)
same,GI50,HCT-15,> 100 µM
same,GI50,SW-620,> 100 µM (inactive)
same,GI50,SNB-19,> 100 µM (inactive)
same,GI50,A549,> 100 µM (inactive)
same,GI50,DMS-273,> 100 µM (inactive)
same,GI50,SNB-78,> 100 µM (inactive)
same,GI50,NCI-H226,> 100 µM (inactive)
same,GI50,SF-295,> 100 µM (inactive)

# — ChEMBL document CHEMBL1201862, “PubChem BioAssay data set” (2004)
